This is an account of results in patent publication US20220389026A1, “TETRACYCLIC COMPOUND USED AS CDC7 INHIBITOR” (Chia Tai Tianqing Pharmaceutical Group Co., Ltd., priority 2019, published 2022).

The structures appear in SMILES notation. Where two headings read alike, the source gives them in different places.

A word on the IC50: it is the midpoint of a concentration-inhibition curve.

The target in data set [1] is T1, CDC7/DBF4 (Homo sapiens, UniProt O00311). The data set can be described thus: Inhibitory effect against activity of Cdc7/DBF4 kinase (ADP-Glo kit). The class given is biochemical. The note with it: 10 μM ATP, 25° C., 60 min. The arrangement: purchased Promega. As to the method: Experimental Example 1. Detection of Inhibitory Effect of Compounds Against Activity of Cdc7/DBF4 Kinase
Cdc7/DBF4 kinase detection kit purchased from Promega; and
(§1) Nivo multi-marker analyzer (PerkinElmer).
An enzyme, a substrate, adenosine triphosphate and an inhibitor were diluted with the kinase buffer in the kit.
A test compound was serially 5-fold diluted to an 8th concentration, i.e., from 10 μM to 0.13 nM, with the DMSO concentration being 5%, and the duplicate well experiment was set up. To a microplate were added 1 μL of inhibitors of various concentration gradients, 2 μL of CDC7/DBF4 kinase (6.25 ng), 2 μL of a mixture of substrate and ATP (10 μM adenosine triphosphate, 0.2 μg/μL substrate), and the final concentration gradient of the compound was diluted from 2 μM to 0.025 nM. The reaction system was left reacting at 25° C. for 60 min. After the reaction was completed, 5 μL of ADP-Glo reagent was added to each well, and the reaction was continued at 25° C. for 40 min. After the reaction was completed, 10 μL of the kinase detection reagent was added to each well. After 30 min of reaction at 25° C., the chemiluminescence was read using a multi-marker analyzer, with an integration time of 0.5 s.
The original data were converted to inhibition rate using the equation (Sample−Min)/(Max−Min)×100%, and the IC50 value was then curve fitted using four parameters (obtained from the “log(inhibitor) vs. response-Variableslope” model in GraphPadPrism). Table 1 provides the inhibitory activity of the compounds disclosed herein against Cdc7/DBF4 kinase.
On the technique in general: ADP-Glo turns the ADP formed in a reaction into a luminescent signal.

Data set [2] addresses T1, CDC7/DBF4. The conditions noted are these: cited from earlier work.
Data set [3] has as its system colo205 cell line with high expression of Cdc7. The conditions noted are these: read-out: COL0205 IC50; cited from earlier work.
Data set [4] deals with tumors in 25 PDX models. The conditions noted are these: cited from earlier work.
For data set [5] the following is noted: cited from earlier work.
In data set [6] the test system is COLO205 cells. The data set can be described thus: Inhibitory activity against COLO205 cell proliferation (CellTiter-Glo). The format is cell-based. The conditions noted are these: Homo sapiens, COLO 205, 72 h; 3 days incubation. As to the method:
Experimental Example 2. Detection of Inhibitory Effect of Compounds Against Activity of Colo205 Cells
1640 medium; fetal bovine serum; penicillin/streptomycin antibiotics purchased from Wisent;
CellTiter-Glo (chemiluminescence detection reagent for cell viability) reagent purchased from Promega;
COLO205 cell line purchased from Wuhan Procell Life Science&Technology Co., Ltd; and
as §1
COLO205 cells were plated on to white 96-well plates by adding 80 μL of cell suspension (containing 3000 COLO205 cells) to each well. The cell plate was incubated in a CO2 incubator overnight.
A test compound was serially 3-fold diluted to an 8th concentration, i.e., from 2 mM to 920 nM, and the duplicate well experiment was set up. […] Another cell plate was read for signal values on the day of compound addition, and these values were used as the […] in data analysis. The chemiluminescence detection reagent for cell viability was added to this cell plate at 25 μL per well and the luminescence signals were stabilized by incubation at room temperature for 10 min. Readings were taken using a multi-marker analyzer.
The chemiluminescence detection reagent for cell viability was added to the cell plate at 25 μL per well and the luminescence signals were stabilized by incubation at room temperature for 10 min. […]
On the technique in general: Cellular ATP, detected with luciferase, serves as a proxy for viable cell number.

T1 sequence (O00311 whole entry): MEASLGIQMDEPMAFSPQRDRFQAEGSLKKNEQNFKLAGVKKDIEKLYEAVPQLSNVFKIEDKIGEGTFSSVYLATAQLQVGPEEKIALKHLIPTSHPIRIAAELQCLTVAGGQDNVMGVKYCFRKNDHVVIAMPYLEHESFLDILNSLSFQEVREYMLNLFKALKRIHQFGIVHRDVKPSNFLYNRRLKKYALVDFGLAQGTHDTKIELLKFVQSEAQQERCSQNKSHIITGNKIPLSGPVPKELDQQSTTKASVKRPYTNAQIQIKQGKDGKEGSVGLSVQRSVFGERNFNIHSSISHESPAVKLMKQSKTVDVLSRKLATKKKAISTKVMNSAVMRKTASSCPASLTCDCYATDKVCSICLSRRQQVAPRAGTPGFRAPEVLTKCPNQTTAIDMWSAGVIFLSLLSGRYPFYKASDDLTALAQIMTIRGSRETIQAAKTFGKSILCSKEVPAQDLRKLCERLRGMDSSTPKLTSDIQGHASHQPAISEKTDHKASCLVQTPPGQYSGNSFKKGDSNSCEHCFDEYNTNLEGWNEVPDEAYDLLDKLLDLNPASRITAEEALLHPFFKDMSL
T1 sequence (Q9UBU7 whole entry partner): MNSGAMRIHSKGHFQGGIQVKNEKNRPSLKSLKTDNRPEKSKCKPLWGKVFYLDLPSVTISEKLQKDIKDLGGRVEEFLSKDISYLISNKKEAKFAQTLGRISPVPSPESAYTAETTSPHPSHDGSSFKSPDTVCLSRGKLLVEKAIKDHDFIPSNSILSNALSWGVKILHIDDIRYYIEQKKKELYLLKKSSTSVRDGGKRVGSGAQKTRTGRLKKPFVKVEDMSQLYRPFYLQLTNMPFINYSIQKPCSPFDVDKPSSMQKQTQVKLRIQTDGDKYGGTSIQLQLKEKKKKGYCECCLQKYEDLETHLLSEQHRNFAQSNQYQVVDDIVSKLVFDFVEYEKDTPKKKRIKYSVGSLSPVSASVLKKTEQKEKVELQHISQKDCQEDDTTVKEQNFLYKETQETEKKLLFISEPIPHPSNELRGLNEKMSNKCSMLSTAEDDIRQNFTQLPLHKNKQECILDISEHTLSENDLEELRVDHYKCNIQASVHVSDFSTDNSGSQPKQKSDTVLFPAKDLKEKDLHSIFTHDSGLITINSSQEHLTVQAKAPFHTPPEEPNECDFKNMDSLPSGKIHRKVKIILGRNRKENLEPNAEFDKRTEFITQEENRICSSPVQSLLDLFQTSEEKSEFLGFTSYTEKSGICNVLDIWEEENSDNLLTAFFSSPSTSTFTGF

`O=c1[nH]c([C@H]2CCCN2)nc2c3c(oc12)-c1c[nH]nc1CCC3` [Compound 2-2] showed an IC50 in data set [1] of 1.41 nM.

On to `O=c1[nH]c([C@@H]2CCCN2)nc2c3c(oc12)-c1c[nH]nc1CCC3` [Compound 2-1], for which the IC50 in data set [1] was 0.95 nM.

`CN1CCC[C@H]1c1nc2c3c(oc2c(=O)[nH]1)-c1c[nH]nc1CCC3` [Compound 3-1] yielded an IC50 in data set [1] of 0.6 nM. As to `Cc1[nH]ncc1-c1cc2nc([C@@H]3CC4CCN3CC4)[nH]c(=O)c2s1` [TAK-931], the results for the IC50 in data set [2] and in data set [3] were 2.59 nM and 85.5 nM, respectively. For the same molecule, the “inhibitory activity against tumors in PDX models” value in data set [4] is given as “excellent inhibitory activity”. Further, the “clearance rate in vivo” value in data set [5] is given as “high clearance rate”. For the same molecule, in data set [5], the half-life in vivo result is “short half-life”. In the case of `CN1CCC[C@@H]1c1nc2c3c(oc2c(=O)[nH]1)-c1c[nH]nc1CCC3` [Compound 3-2], the IC50 in data set [1] worked out at 1.97 nM.

As to `O=c1[nH]c(C2CC3CCN2CC3)nc2c3c(oc12)-c1c[nH]nc1CCC3` (single isomer, unassigned) [Compound 1-2], the IC50 worked out at 2.8 nM in data set [1] and 51.7 nM in data set [6]. In the case of `O=c1[nH]c(C2CC3CCN2CC3)nc2c3c(oc12)-c1c[nH]nc1CCC3` (single isomer, unassigned) [Compound 1-1], 1.49 nM corresponded to half-maximal inhibition in data set [1] (IC50).
